Reference: patent US8399462B2, “JNK modulators” (Roche Palo Alto LLC, priority 2006, dated 2013)
Several values for one entry are separate records, joined by “and”; a condition that tells them apart may be missing. Equal entries are not always repeated.

Row | SMILES | melting point
1 | O=C1c2ccccc2C(=O)N1Cc1cccc2c1ccn2-c1ccnc(N[C@H]2CC[C@H](O)CC2)n1 [Compound 106, 2-{1-[2-(4-hydroxy-cyclohexylamino)-pyrimidin-4-yl]-1H-indol-4-ylmethyl}-isoindole-1,3-dione] | 251.7 to 253 °C
2 | CC(=O)NCCCOc1cccc2c1cnn2-c1ccnc(N[C@H]2CC[C@H](N(C)S(C)(=O)=O)CC2)n1 [Compound 213, N-[3-(1-{2-[4-(methane-sulfonyl-methylamino)-cyclohexylamino]-pyrimidin-4-yl}-1H-indazol-4-yloxy)-propyl]-acetamide] | 226 to 227 °C
3 | CCNC(=O)[C@H]1CC[C@H](Nc2nccc(-n3ccc4c(OCCCS(=O)(=O)NC)cccc43)n2)CC1 [Compound 303, 4-{4-[4-(3-methane-sulfamoyl-propoxy)-indol-1-yl]-pyrimidin-2-ylamino}-cyclohexane-carboxylic acid ethyl-amide] | 201.7 to 203.2 °C
4 | CC(=O)N[C@H]1CC[C@H](Nc2nccc(-n3ncc4c(OCCO)cccc43)n2)CC1 [Compound 130, N-(4-{4-[4-(2-hydroxy-ethoxy)-indazol-1-yl]-pyrimidin-2-ylamino}-cyclohexyl)-acetamide] | 242.7 to 245.5 °C
5 | N#CCc1cccc2c1ccn2-c1ccnc(N[C@H]2CC[C@H](C(=O)N3CCCC3)CC2)n1 [Compound 114, (1-{2-[4-(pyrrolidino-1-carbonyl)-cyclohexyl-amino]-pyrimidin-4-yl}-1H-indol-4-yl)-acetonitrile] | 136 to 137.5 °C
6 | CC(=O)N[C@H]1CC[C@H](Nc2nccc(-n3ncc4c(OCCCO)cccc43)n2)CC1 [Compound 152, N-(4-{4-[4-(3-hydroxy-propoxy)-indazol-1-yl]-pyrimidin-2ylamino}-cyclohexyl)-acetamide] | 226 to 228 °C
7 | CCCOc1cccc2c1cnn2-c1ccnc(N[C@H]2CC[C@H](NS(C)(=O)=O)CC2)n1 [Compound 142, N-{4-[4-(4-propoxy-indazol-1-yl)-pyrimidin-2-ylamino]-cyclohexyl}-methanesulfonamide] | 253 to 254 °C
8 | O=C([C@H]1CC[C@H](Nc2ncc(Cl)c(-n3ccc4ccccc43)n2)CC1)N1CCCC1 [Compound 120, [4-(5-chloro-4-indol-1-ylpyrimidin-2-ylamino)-cyclohexyl]-pyrrolidin-1-ylmethanone] | 182 to 182.5 °C
9 | COCCOCc1cccc2c1ccn2-c1ccnc(N[C@H]2CC[C@H](NC(C)=O)CC2)n1 [Compound 140, N-(4-{4-[4-(2-methoxy-ethoxymethyl)-indol-1-yl]-pyrimidin-2-ylamino}-cyclohexyl)-acetamide] | 177 to 177.8 °C
10 | NS(=O)(=O)CCCOc1cccc2c1cnn2-c1ccnc(N[C@H]2CC[C@H](C(=O)N3CC[C@H](O)C3)CC2)n1 (stereo in doubt) [Compound 252, 3-(1-{2-[4-(3-hydroxy-pyrrolidine-1-carbonyl)-cyclohexylamino]-pyrimidin-4-yl}-1H-indazol-4-yloxy)-propane-1-sulfonic acid amide] | 161 to 162 °C
11 | COc1cccc2c1c(C(N)=O)cn2-c1ccnc(N[C@H]2CC[C@H](C(=O)N3CCC(O)CC3)CC2)n1 [Compound 282, 1-{2-[4-(4-hydroxy-piperidine-1-carbonyl)-cyclohexylamino]-pyrimidin-4-yl}-4-methoxy-1H-indole-3-carboxylic acid amide] | 278 to 280 °C
12 | CC(C)(O)[C@H]1CC[C@H](Nc2nccc(-n3ccc4c(S(C)(=O)=O)cccc43)n2)CC1 [Compound 209, 2-{4-[4-(4-methane-sulfonyl-indol-1-yl)-pyrimidin-2-ylamino]-cyclohexyl}-propan-2-ol] | 217.8 to 218.5 °C

Now from value to compound:

Row | melting point | SMILES
13 | 182.4 to 183 °C and 178.9 to 180.6 °C | CN(C)C1CCN(C(=O)[C@H]2CC[C@H](Nc3nccc(-n4ccc5c(OCCCS(C)(=O)=O)cccc54)n3)CC2)CC1 [Compound 275, (4-dimethylamino-piperidin-1-yl)-(4-{4-[4-(3-methanesulfonyl-propoxy)-indol-1-yl]-pyrimidin-2-ylamino}-cyclohexyl)-methanone]
14 | 235 to 235.5 °C | CS(=O)(=O)N[C@H]1CC[C@H](Nc2nccc(-n3ccc4c(CC#N)cccc43)n2)CC1 [Compound 110, N-{4-[4-(4-cyano-methyl-indol-1-yl)-pyrimidin-2ylamino]-cyclohexyl}-methane-sulfonamide]
15 | 248.7 to 249.4 °C | CS(=O)(=O)N[C@H]1CC[C@H](Nc2nccc(-n3ccc4c(F)cccc43)n2)CC1 [Compound 134, N-{4-[4-(4-fluoro-indol-1-yl)-pyrimidin-2-ylamino]-cyclohexyl}-methane sulfonamide]
16 | 132.6 to 137.7 °C | CC1(O)CCN(C(=O)[C@H]2CC[C@H](Nc3nccc(-n4ccc5c(OCCCS(C)(=O)=O)cccc54)n3)CC2)CC1 [Compound 292, (4-hydroxy-4-methyl-piperidin-1-yl)-(4-{4-[4-(3-methanesulfonyl-propoxy)-indol-1-yl]-pyrimidin-2-ylamino}-cyclohexyl)-methanone]
17 | 218.4 to 220.9 °C | NS(=O)(=O)CCCOc1cccc2c1ccn2-c1ccnc(N[C@H]2CC[C@H](C(=O)N3CCC3)CC2)n1 [Compound 299, 3-(1-{2-[4-(azetidin-1-carbonyl)-cyclohexyl-amino]-pyrimidin-4-yl}-1H-indol-4-yloxy)-propane-1-sulfonic acid amide]
18 | > 300 °C | CN(C)S(=O)(=O)N[C@H]1CC[C@H](Nc2nccc(-n3ccc4c(C5(O)CCOCC5)cccc43)n2)CC1 [Compound 182, N-(4-{4-[4-(4-hydroxy-tetrahydropyran-4-yl)-indol-1-yl]-pyrimidin-2-ylamino}-cyclohexyl)-(N′,N′-dimethylamino)-sulfonamide]
19 | > 300 °C | CC(C)(O)c1cccc2c1ccn2-c1ccnc(N[C@H]2CC[C@H](NS(=O)(=O)N3CCOCC3)CC2)n1 [Compound 259, Morpholine-4-sulfonic acid (4-{4-[4-(2-hydroxyprop-2-yl)-indol-1-yl]-pyrimidin-2-ylamino}-cyclohexyl)-amide]
20 | 167.3 to 170.5 °C | CS(=O)(=O)CCCOc1cccc2c1ccn2-c1ccnc(N[C@H]2CC[C@H](C(=O)N3CCCC(O)C3)CC2)n1 (stereo partly shown) [Compound 291, (3-hydroxy-piperidin-1-yl)-(4-{4-[4-(3-methane-sulfonyl-propoxy)-indol-1-yl]-pyrimidin-2-ylamino}-cyclohexyl)-methanone]
21 | 139.6 to 150.3 °C | CS(=O)(=O)CCCOc1cccc2c1ccn2-c1ccnc(N[C@H]2CC[C@H](CN3CC[C@@H](O)C3)CC2)n1 [Compound 317, 1-(4-{4-[4-(3-methanesulfonyl-propoxy)-indol-1-yl]-pyirmidin-2-ylamino}-cyclohexylmethyl)-pyrrolidin-3-ol]
22 | 179 to 180 °C | CS(=O)(=O)N[C@H]1CC[C@H](Nc2nccc(-n3ccc4c(OCC5CCN(C(=O)OCc6ccccc6)CC5)cccc43)n2)CC1 [Compound 195, 4-{1-[2-(4-methane-sulfonylamino-cyclo-hexylamino)-pyrimidin-4-yl]-1H-indol-4-yloxymethyl}-piperidine-1-carboxylic acid benzyl ester]
